Among the test systems are RXF 393 renal; MCF7 breast; SF-539 CNS; K-562 leukemia; SF-268 CNS; NCI-H460 lung; MOLT-4 leukemia; A549 NSCLC; HT29 colon; SK-MEL-28 melanoma.
Holding throughout (test): NCI tumour cell line growth inhibition, 48 h

The source of these data is PubChem BioAssay (NCI).

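The compound was tested at five concentrations on cells cultured in 96-well plates, with a 48-hour exposure period. At the GI50, growth is halved. The concentration for full growth arrest is given as TGI.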

With `O=C(Cc1ccc(/C=C/C(=O)c2ncc[nH]2)cc1)Nc1ccc(F)cc1`, the GI50 with RXF 393 renal was 3440 nM; in the experiment with MCF7 breast, 995 nM; in the experiment with SF-539 CNS, 845 nM; in the experiment with K-562 leukemia, 1300 nM; in the experiment with SF-268 CNS, 5100 nM; in the experiment with NCI-H460 lung, 1720 nM. Besides, the GI50 in the experiment with MOLT-4 leukemia was 5740 nM; in the experiment on A549 NSCLC it was 6940 nM; with HT29 colon it was 1150 nM; in the experiment with SK-MEL-28 melanoma, 6260 nM. The TGI with RXF 393 renal was 8.92 µM; in the experiment on MCF7 breast, 4.62 µM; with SF-539 CNS, 2.66 µM; with K-562 leukemia, over 33.3 µM; with SF-268 CNS it was 26.3 µM; in the experiment on NCI-H460 lung, 14.6 µM. Further, the TGI with MOLT-4 leukemia is over 33.3 µM; in the experiment with A549 NSCLC it was over 33.3 µM; in the experiment with HT29 colon, 4.45 µM; in the experiment with SK-MEL-28 melanoma it was 16.6 µM.
In the case of `NS(=O)(=O)c1ccc(Nc2cc(-c3cccc(O)c3)[nH]n2)cc1`, the GI50 with RXF 393 renal is over 25000 nM; with MCF7 breast, over 25000 nM; in the experiment on SF-539 CNS, 20500 nM; with K-562 leukemia, over 25000 nM; in the experiment with SF-268 CNS it was over 25000 nM; in the experiment with NCI-H460 lung, over 25000 nM. Also, the GI50 in the experiment on MOLT-4 leukemia was 13400 nM; in the experiment with A549 NSCLC it was over 25000 nM; in the experiment with HT29 colon, over 25000 nM; with SK-MEL-28 melanoma, over 25000 nM. Also, the TGI with RXF 393 renal, in the experiment on MCF7 breast, in the experiment on SF-539 CNS, in the experiment on K-562 leukemia, with SF-268 CNS and in the experiment with NCI-H460 lung was over 25 µM in each case. In addition, the TGI in the experiment on MOLT-4 leukemia, in the experiment on A549 NSCLC, with HT29 colon and in the experiment on SK-MEL-28 melanoma was over 25 µM throughout.
Turning to `CC(=O)O[C@H]1C(=O)[C@@]2(C)C(C(OC(=O)c3ccccc3)[C@]3(O)C[C@H](OC(=O)C(OC(=O)CCCC(=O)NCCCN(C)C)C(NC(=O)c4ccccc4)c4ccccc4)C(C)=C1C3(C)C)C1(OC(C)=O)COC1C[C@@H]2O` (stereo not given in full), the TGI with RXF 393 renal is 3.27 µM; with MCF7 breast it was 48.5 µM; with SF-539 CNS it was 0.0184 µM; in the experiment with K-562 leukemia, 45.4 µM; in the experiment with SF-268 CNS, 75.3 µM; in the experiment with NCI-H460 lung, 8.71 µM. Further, the TGI is 12.5 µM with MOLT-4 leukemia, over 85.3 µM with A549 NSCLC, 2.22 µM with HT29 colon and 55.5 µM in the experiment on SK-MEL-28 melanoma.
For `Fc1cc2[nH]ncc2c2c3c(c(-c4cn[nH]c4C(F)(F)F)nc12)CCCC3`, the GI50 with RXF 393 renal is 1080 nM; in the experiment with MCF7 breast, 1180 nM; in the experiment with SF-539 CNS, 1290 nM; in the experiment on K-562 leukemia, 2070 nM; with SF-268 CNS, 1970 nM; in the experiment on NCI-H460 lung it was 1160 nM. The GI50 in the experiment with MOLT-4 leukemia is 802 nM; in the experiment on A549 NSCLC, 2060 nM; with HT29 colon, 2950 nM; with SK-MEL-28 melanoma, 1410 nM. Further, the TGI in the experiment with RXF 393 renal is 2.39 µM; in the experiment on MCF7 breast, over 100 µM; with SF-539 CNS it was 3.06 µM; in the experiment with K-562 leukemia it was over 100 µM; in the experiment on SF-268 CNS, 5.86 µM; with NCI-H460 lung, 9.92 µM. In addition, the TGI with MOLT-4 leukemia was 3.75 µM; in the experiment on A549 NSCLC, over 100 µM; in the experiment on HT29 colon it was over 100 µM; with SK-MEL-28 melanoma it was 5.35 µM.
On to `O=S(=O)(NCCCNc1nccc(-c2c(-c3ccc(O)cc3)nc3sccn23)n1)c1ccc(F)cc1`, for which the GI50 is 2740 nM with RXF 393 renal; 2160 nM in the experiment on MCF7 breast; 2040 nM with SF-539 CNS; 1670 nM in the experiment on K-562 leukemia; 2940 nM with SF-268 CNS; 2370 nM in the experiment with NCI-H460 lung. Also, the GI50 with MOLT-4 leukemia is 2470 nM; with A549 NSCLC, 2640 nM; in the experiment on HT29 colon, 1520 nM; in the experiment on SK-MEL-28 melanoma, 52.8 nM. Moreover, the TGI with RXF 393 renal is over 100 µM; in the experiment with MCF7 breast, 5.91 µM; in the experiment on SF-539 CNS, 13.9 µM; with K-562 leukemia, over 100 µM; with SF-268 CNS, 14.7 µM; in the experiment with NCI-H460 lung it was 7.18 µM. For the same molecule, the TGI with MOLT-4 leukemia was found to be 8.81 µM; in the experiment on A549 NSCLC it was 20.3 µM; in the experiment on HT29 colon it was 17.2 µM; with SK-MEL-28 melanoma, 6.23 µM.
For the molecule `OCCN1CCN(CCCN2c3ccccc3Sc3ccc(Cl)cc32)CC1`, the GI50 is 1960 nM in the experiment with RXF 393 renal; 2020 nM in the experiment on MCF7 breast; 1820 nM with SF-539 CNS; 2100 nM with K-562 leukemia; 2790 nM in the experiment with SF-268 CNS; 1980 nM with NCI-H460 lung. Also, the GI50 in the experiment on MOLT-4 leukemia is 2400 nM; in the experiment on A549 NSCLC it was 3680 nM; in the experiment on HT29 colon it was 1730 nM; in the experiment on SK-MEL-28 melanoma, 1840 nM. Also, the TGI worked out at 7.68 µM with RXF 393 renal; 3.96 µM in the experiment with MCF7 breast; 3.94 µM in the experiment with SF-539 CNS; 4.45 µM in the experiment on K-562 leukemia; 10.7 µM in the experiment on SF-268 CNS; 4.22 µM with NCI-H460 lung. Besides, the TGI was 5.79 µM with MOLT-4 leukemia, 15.2 µM in the experiment with A549 NSCLC, 3.42 µM with HT29 colon and 3.31 µM in the experiment with SK-MEL-28 melanoma.
Turning to `CCOC(=O)C1Cc2c(cc3c4c(cccc24)N(C(C)=O)C3)N(C)C1` (stereo not given), the TGI in the experiment with RXF 393 renal was 44.7 µM; in the experiment with MCF7 breast, over 100 µM; in the experiment on SF-539 CNS it was 10.1 µM; in the experiment with K-562 leukemia it was over 100 µM; in the experiment with SF-268 CNS, over 100 µM; with NCI-H460 lung, over 100 µM. Further, the TGI with MOLT-4 leukemia, with A549 NSCLC, in the experiment on HT29 colon and in the experiment with SK-MEL-28 melanoma was over 100 µM throughout.
For `CCOC(=O)c1ccc(NC(=O)Nc2nncs2)cc1`, the GI50 was 140 nM in the experiment on RXF 393 renal; 116 nM in the experiment on MCF7 breast; 162 nM with SF-539 CNS; 75.4 nM with K-562 leukemia; 952 nM in the experiment with SF-268 CNS; 379 nM in the experiment with NCI-H460 lung. Also, the GI50 in the experiment on MOLT-4 leukemia is 384 nM; in the experiment on A549 NSCLC it was 410 nM; in the experiment on HT29 colon, 189 nM; in the experiment with SK-MEL-28 melanoma it was 250 nM. Further, the TGI in the experiment with RXF 393 renal was 0.489 µM; in the experiment on MCF7 breast, over 32.9 µM; in the experiment with SF-539 CNS, 2.36 µM; in the experiment with K-562 leukemia it was over 46.6 µM; in the experiment on SF-268 CNS, 22.9 µM; with NCI-H460 lung, 14.1 µM. For the same molecule, the TGI is over 48.7 µM in the experiment with MOLT-4 leukemia, 26.1 µM in the experiment on A549 NSCLC, 10.9 µM in the experiment with HT29 colon and 56 µM with SK-MEL-28 melanoma.
